Experimental data taken from patent US7598418B2, “Amide derivatives” (Institute of Medicinal Molecular Design, Inc., priority 2002, dated 2009).

What follows are molecules tested on Jurkat cells (assay: Jurkat cell proliferation, MTS method: compound alone or combined with bleomycin). Conditions: compound plus bleomycin 5 μg/ml or 10 μg/ml, 36 hours, survival rate vs DMSO control.
Type: cell-based
Design: key: ┌++┘ indicates observation of remarkable enhancement; ┌+┘ indicates moderated enhancement
Experimental: By using aforementioned synthetic compounds, effects on proliferation of Jurkat cells by sole administration and inhibitory effects on cell proliferation by administration in combination with bleomycin were examined. Materials and methods are as follows. Jurkat cells obtained from Dainippon Pharmaceutical Co. Ltd. were inoculated at about 10,000 cells per well in a 96 well culture plate, and incubated in 10% bovine fetal serum (Irvine Scientific) supplemented with RPMI1640 (ICN) medium in 5% CO2 incubator at 37° C. […] 36 hours after the incubation, the number of living cells was counted by the MTS method.
More specifically, 20 μl of CellTiter96™ AQueous One Solution (Promega) was added per one well, and after the cells were incubated for additional one hour, an absorbance at 490 nm was measured by using a microplate reader. The same culture added with DMSO as a solvent at final concentration of 0.25% was used as a control. The number of cells in the control was considered as 100% survival rate, and for each compound, survival rates by sole administration or a combined administration were calculated. […] In the table, ┌++┘ indicates observation of remarkable enhancement, ┌+┘ indicates moderated enhancement.

| SMILES | Activity (enhancement of inhibitory effect on cell proliferation in combination with bleomycin) |
| --- | --- |
| Cc1ccc(S(=O)(=O)Oc2cccc3c(S(=O)(=O)NCc4c(F)cccc4F)cccc23)cc1 [Compound 1-2, N-(2,6-Difluorobenzyl)-5-{[(4-methylphenyl)sulfonyl]oxy}naphthalene-1-sulfonamide] | + |
| Cc1ccc(S(=O)(=O)Oc2cccc3c(S(=O)(=O)NCc4ccc(Cl)cc4Cl)cccc23)cc1 [Compound 1-3, N-(2,4-Dichlorobenzyl)-5-{[(4-methylphenyl)sulfonyl]oxy}naphthalene-1-sulfonamide] | ++ |
| O=S(=O)(NCc1ccccc1C(F)(F)F)c1cccc2c(O)cccc12 [Compound 2-8, N-[2-(Trifluoromethyl)benzyl]-5-hydroxynaphthalene-1-sulfonamide] | + |
| COc1cccc(CNS(=O)(=O)c2cccc3c(OS(=O)(=O)c4ccc(C)cc4)cccc23)c1 [Compound 1-12, N-(3-Methoxybenzyl)-5-{[(4-methylphenyl)sulfonyl]oxy}naphthalene-1-sulfonamide] | + |
| Cc1ccc(S(=O)(=O)Oc2cccc3c(S(=O)(=O)NCc4cccc5ccccc45)cccc23)cc1 [Compound 1-19, N-(1-Naphthylmethyl)-5-{[(4-methylphenyl)sulfonyl]oxy}naphthalene-1-sulfonamide] | ++ |
| CC(C)(C)c1ccc(CNS(=O)(=O)c2cccc3c(O)cccc23)cc1 [Compound 2-7, N-[4-(tert-Butyl)benzyl]-5-hydroxynaphthalene-i-sulfonamide] | ++ |
| CC(C)(C)c1ccc(CNS(=O)(=O)c2ccc3c(O)cccc3c2)cc1 [Compound 4-4, N-[4-(tert-Butyl)benzyl]-5-hydroxynaphthalene-2-sulfonamide] | ++ |
| Cc1ccc(S(=O)(=O)Oc2cccc3c(S(=O)(=O)NCc4ccccc4C)cccc23)cc1 [Compound 1-6, N-(2-Methylbenzyl)-5-{[(4-methylphenyl)sulfonyl]oxy}naphthalene-1-sulfonamide] | ++ |
| CC(C)(C)c1ccc(CNS(=O)(=O)c2cccc3cc(N)ccc23)cc1 [Compound 8-2, 6-Amino-N-[4-(tert-butyl)benzyl]naphthalene-1-sulfonamide] | + |
| O=S(=O)(NCc1ccc(C(F)(F)F)cc1)c1ccc2c(O)cccc2c1 [Compound 4-5, N-[4-(Trifluoromethyl)benzyl]-5-hydroxynaphthalene-2-sulfonamide] | + |
| CC(C)(C)c1ccc(CNS(=O)(=O)c2ccc3c(N)cccc3c2)cc1 [Compound 6-2, 5-Amino-N-[4-(tert-butyl)benzyl]naphthalene-2-sulfonamide] | + |
| Cc1ccc(S(=O)(=O)Oc2cccc3c(S(=O)(=O)Nc4ccccc4)cccc23)cc1 [Compound 1-24, N-Phenyl-5-{[(4-methylphenyl)sulfonyl]oxy}naphthalene-1-sulfonamide] | ++ |
| COc1cccc(CNS(=O)(=O)c2ccc3c(O)cccc3c2)c1OC [Compound 4-6, N-(2,3-Dimethoxybenzyl)-5-hydroxynaphthalene-2-sulfonamide] | + |
| O=S(=O)(NCCc1ccccc1)c1ccc2c(O)cccc2c1 [Compound 4-13, N-(2-Phenethyl)-5-hydroxynaphthalene-2-sulfonamide] | + |
| O=S(=O)(NCc1cccc2ccccc12)c1ccc2c(O)cccc2c1 [Compound 4-8, N-(1-Naphthylmethyl)-5-hydroxynaphthalene-2-sulfonamide] | + |
| Cc1ccc(S(=O)(=O)Oc2cccc3c(S(=O)(=O)NCc4cccc(N)c4)cccc23)cc1 [Compound 1-16, N-(3-Aminobenzyl)-5-{[(4-methylphenyl)sulfonyl]oxy}naphthalene-1-sulfonamide] | + |
| O=S(=O)(NCc1ccccc1)c1ccc2c(O)cccc2c1 [Compound 4-1, N-Benzyl-5-hydroxynaphthalene-2-sulfonamide] | + |
| Cc1ccc(S(=O)(=O)Oc2cccc3c(S(=O)(=O)NCc4ccc(C)o4)cccc23)cc1 [Compound 1-20, N-[(5-Methylfuran-2-yl)methyl]-5-{[(4-methylphenyl)sulfonyl]oxy}naphthalene-1-sulfonamide] | + |

| SMILES | Activity (enhancement of inhibitory effect on cell proliferation in combination with bleomycin) |
| --- | --- |
| CC(=O)Oc1cccc2cc(S(=O)(=O)NCc3ccc(C)o3)ccc12 [Compound 3-9, 5-Acetyloxy-N-[(5-methylfuran-2-yl)methyl]naphthalene-2-sulfonamide] | + |
| CC(=O)Oc1cccc2cc(S(=O)(=O)NCc3ccc(C(F)(F)F)cc3)ccc12 [Compound 3-5, 5-Acetyloxy-N-[4-(trifluoromethyl)benzyl]naphthalene-2-sulfonamide] | + |
| O=[N+]([O-])c1cccc(CNS(=O)(=O)c2ccc3c(O)cccc3c2)c1 [Compound 4-3, N-(3-Nitrobenzyl)-5-hydroxynaphthalene-2-sulfonamide] | + |
| Cc1ccc(S(=O)(=O)Oc2cccc3c(S(=O)(=O)NCCc4ccccc4)cccc23)cc1 [Compound 1-25, N-(2-Phenethyl)-5-{[(4-methylphenyl)sulfonyl]oxy}naphthalene-1-sulfonamide] | + |
| Cc1ccc(S(=O)(=O)Oc2cccc3c(S(=O)(=O)NCc4ccccc4)cccc23)cc1 [Compound 1-1, N-Benzyl-5-{[(4-methylphenyl)sulfonyl]oxy}naphthalene-1-sulfonamide] | ++ |
| Cc1ccc(S(=O)(=O)Oc2cccc3c(S(=O)(=O)NC(C)c4ccccc4)cccc23)cc1 (stereo not drawn) [Compound 1-26, N-(1-Phenethyl)-5-{[(4-methylphenyl)sulfonyl]oxy}naphthalene-1-sulfonamide] | ++ |
| Nc1cccc2c(C(=O)NCc3ccccc3)cccc12 [Compound 11-1, 5-Amino-N-benzylnaphthalene-1-carboxamide] | + |
| Nc1cccc(CNS(=O)(=O)c2ccc3c(O)cccc3c2)c1 [Compound 4-7, N-(3-Aminobenzyl)-5-hydroxynaphthalene-2-sulfonamide] | + |
| Cc1ccc(S(=O)(=O)Oc2cccc3c(S(=O)(=O)NCc4ccc(N(C)C)cc4)cccc23)cc1 [Compound 1-17, N-[4-(Dimethylamino)benzyl]-5-{[(4-methylphenyl)sulfonyl]oxy}naphthalene-1-sulfonamide] | ++ |
| Cc1ccc(S(=O)(=O)Oc2cccc3c(S(=O)(=O)NCc4ccc(C(F)(F)F)cc4)cccc23)cc1 [Compound 1-9, N-[4-(Trifluoromethyl)benzyl]-5-{[(4-methylphenyl)sulfonyl]oxy}naphthalene-1-sulfonamide] | ++ |
| O=S(=O)(NCc1ccc(Cl)cc1Cl)c1cccc2c(O)cccc12 [Compound 2-3, N-(2,4-Dichlorobenzyl)-5-hydroxynaphthalene-1-sulfonamide] | ++ |
| O=S(=O)(NCc1ccc(C(F)(F)F)cc1)c1cccc2c(O)cccc12 [Compound 2-9, N-[4-(Trifluoromethyl)benzyl]-5-hydroxynaphthalene-1-sulfonamide] | + |
| COc1cccc(CNS(=O)(=O)c2cccc3c(O)cccc23)c1OC [Compound 2-13, N-(2,3-Dimethoxylbenzyl)-5-hydroxynaphthalene-1-sulfonamide] | + |
| COc1ccccc1CNS(=O)(=O)c1cccc2c(O)cccc12 [Compound 2-11, N-(2-Methoxylbenzyl)-5-hydroxynaphthalene-1-sulfonamide] | + |
| O=S(=O)(NCC1CCCCC1)c1cccc2c(O)cccc12 [Compound 2-23, N-Cyclohexylmethyl-5-hydroxynaphthalene-1-sulfonamide] | + |
| COc1ccccc1CNS(=O)(=O)c1cccc2c(OS(=O)(=O)c3ccc(C)cc3)cccc12 [Compound 1-11, N-(2-Methoxybenzyl)-5-{[(4-methylphenyl)sulfonyl]oxy}naphthalene-1-sulfonamide] | ++ |
| COc1cccc(CNS(=O)(=O)c2ccc3c(N)cccc3c2)c1OC [Compound 6-3, 5-Amino-N-(2,3-dimethoxybenzyl)naphthalene-2-sulfonamide] | + |
| Cc1ccc(S(=O)(=O)Oc2cccc3c(S(=O)(=O)N(C)Cc4ccccc4)cccc23)cc1 [Compound 1-27, N-Benzyl-N-methyl-5-{[(4-methylphenyl)sulfonyl]oxy}naphthalene-1-sulfonamide] | + |
